Assay results taken from USRE39264E1, “Pharmaceutical combination” (Medivir AB, priority 1996, dated 2006).

How the values were obtained:
[1] = system: Human HSV-1 (strain C42 or SC16); assay: Experiment 2: sequential test of foscarnet cream and an antiinflammatory cream in the animal model for recurrent herpes infection
Description: In the novel animal model, virus is inoculated in the neck of a mouse. The virus will then be transported through the nerves to the skin of the corresponding ear. This transport will take approximately 3-4 days. On day 2 the animals are given immune cells with reactivity against the infecting virus. Subsequently, when the virus arrives at the ear, the animal instantly mobilises an effective immune response against the virus, thus mimicking the clinical situation of a recurrent herpes infection.
The development of zosteriform spread infection is then recorded by daily inspection of the occurrence of lesions on the pinna and swelling of the ear.
The lesions are scored on a scale from 0 to 4 as follows: • 0: no lesions on the ear • 1: isolated zosteriform lesions on the ear • 2: mild ulceration of zosteriform lesions on the ear • 3: moderate ulceration of zosteriform lesions on the ear • 4: severe ulceration of zosteriform lesions on the ear
Swelling of the ear was assessed by measuring the thickness of the ears using an engineers micrometer, as described by Kristofferson et al. The titre of infectious virus in the ear was measured as described by Kristofferson et al, except that BHK (baby hamster kidney) cells were used in addition.
On day 2 after infection the animals are given adoptive transfer of immunity, ATI, against HSV-1 by intravenous injection of 2×10^7 lymph node cells into the tail. Said lymph node cells had been prepared by injecting HSV-1 (10^5 pfu, strain C42 or strain SC16) into the pinna of both ears of anaesthetisized female Balb/C mice (16-18 g). Seven days post infection the animals are sacrificed by cervical dislocation, the draining lymph nodes are removed, and a suspension of lymph node cells in phosphate buffered saline is prepared by means of a micro mesh.
On day 4 after the infection and for 4 days, a composition to be tested as to activity against recurrent herpes is distributed equally in an amount of approximately 25 mg of cream on each side of the ear, every 8 h.
In this experiment the animals were treated with two different formulations 2 hours apart. First the foscarnet cream was applied and 2 hours later the antiinflammatory formulation. This was repeated three times daily during the treatment period (day 4-7 after infection).
The following substances were tested: foscarnet (3%, Foscarnet Cream), budesonide (0.025%, Preferid®, Gist-Brocades, The Netherlands), hydrocortisone (1%, Hydrokortison kräm 1% ACO, Kabi Pharmacia AB, Sweden), lidocaine (5%, Xylocaine®, Astra AB) and ketoprofen (2.5%, Oruvail®, Rhone-Poulenc Rorer NS, Denmark)

[2] = system: Human HSV-1 (strain C42 or SC16); assay: Experiment 1: combination creams of foscarnet and an antiinflammatory substance in the animal model for recurrent herpes infection; format: in vivo, Balb/C mice; settings: for Compounded value ± s.d., Ear thickness / Compounded value ± s.d., Lesion score: cream day 4-7 after infection three times daily, mean cumulative over days 4-12, 15 and 21, ATI day 2; for Compounded value ± s.d., Lesion score: score scale 0-4; for Ear thickness (% of placebo): cumulative ear thickness; for Ear thickness (% of placebo) / Lesion score (% of placebo): placebo set to 100%; for Lesion score (% of placebo): cumulative lesion score
Experimental: This transport will take approximately 3-4 days. […] Budesonide and lidocaine were selected for testing as examples of antiinflammatory compounds. The foscarnet cream Foscarnet Cream was prepared as described in Example 1. The cream base without drug was used as placebo. The cream base described above was also mixed with budesonide cream (0.025%, […]-Brocades, The Netherlands) to obtain suitable concentrations for treatment. […] Foscarnet, the two antiinflammatory substances, as well as the two combination creams were tested in the animal model described, with ten animals in each group. The respective cream was applied day 4-7 after infection three times daily.

[3] = system: Human HSV-1 (strain C42 or SC16); assay: Experiment 3: combination creams of an antiviral and an anti-inflammatory substance in the animal model for recurrent herpes infection; format: in vivo, Balb/C mice; settings: for ear thickness (% of placebo) / Lesion score (% of placebo): placebo set to 100%
Experimental: Human HSV-1 (2×10^5 plaque forming units, pfu, strain C42 or SC16) is inoculated into the neck of groups of 10-18 female in-bred Balb/C mice (16-18 g) as described by Kristofferson et al. (“Limited efficacy of inhibitors of herpes simplex virus DNA synthesis in murine models of recrudescent disease”, J. Gen. Virol. 1988; 69:1157-66). The development of zosteriform spread infection is then recorded by daily inspection of the occurrence of lesions on the pinna and swelling of the ear.
The same animal model with ten animals in each group was used.

recurrent HSV infections = settings: oral formulation, used after the appearance of symptoms; cited from earlier work
[4] = systemic treatment, 50 mg/kg injected intra-peritoneally three times daily
[5] = topical cream three times daily days 4-7 after infection, ATI day 2

Structure (SMILES)	Compounded value ± s.d., Ear thickness [2] [mm]	Compounded value ± s.d., Lesion score [2]	Ear thickness (% of placebo) [2]	Lesion score (% of placebo) [2]	Mean cumulative value ± s.d., ear thickness [3, 5] [mm]	Mean cumulative value ± s.d., lesion score [3, 5]	Lesion score (% of placebo) ([3]; topical cream)	ear thickness (% of placebo) ([3]; topical cream)	further results
COc1ccc2c(c1)c(CC(=O)O)c(C)n2C(=O)c1ccc(Cl)cc1 [indomethacin]	–	–	–	–	–	–	–	–	Side-effects of topical NSAID ([1]; mouse, in vivo): toxic side-effects
CCCC1O[C@@H]2C[C@H]3[C@@H]4CCC5=CC(=O)C=C[C@]5(C)[C@H]4[C@@H](O)C[C@]3(C)[C@]2(C(=O)CO)O1 (stereo partly drawn) [Budesonide]	2.1 ± 0.4	8.8 ± 1.8	58 % of placebo	96 % of placebo	–	–	–	–	–
Nc1nc2c(ncn2COCCO)c(=O)[nH]1 [Acyclovir]	–	–	–	–	3.3 ± 0.3	8.0 ± 1.3	118 % of placebo	100 % of placebo	ear thickness (% of placebo) ([3]; systemic treatment, 50 mg/kg i.p. three times daily): 88 % of placebo; Mean cumulative value ± s.d., ear thickness [3, 4]: 3.0 ± 0.4 mm; Mean cumulative value ± s.d., lesion score [3, 4]: 7.0 ± 1.6; Shortening of healing time (recurrent HSV infections): no more than approximately one day
CCN(CC)CC(=O)Nc1c(C)cccc1C [Lidocaine]	3.6 ± 0.3	9 ± 2	100 % of placebo	98 % of placebo	–	–	–	–	Effect on ear thickness / inflammation ([2]; compared to placebo or single creams): no effect
C[C@]12CCC(=O)C=C1CC[C@@H]1[C@@H]2[C@@H](O)C[C@@]2(C)[C@H]1CC[C@]2(O)C(=O)CO [Hydrocortisone]	–	–	–	–	2.0 ± 0.2	6.0 ± 1.3	88 % of placebo	61 % of placebo	–
O=C(O)P(=O)(O)O [Foscarnet, Trisodium phosphonoformate hexahydrate]	3.0 ± 0.4	7.5 ± 2.5	82 % of placebo	82 % of placebo	3.3 ± 0.2	7.3 ± 1.2	107 % of placebo	98 % of placebo	Virus titre in the ear ± s.d. on d 7 ([1]; ATI +, day 7 after infection): 3.25 ± 0.49 log10pfu/ml; Ear thickness (% of placebo) ([1]; cumulative ear thickness, placebo set to 100%): 88 % of placebo; Lesion score (% of placebo) ([1]; cumulative lesion score, placebo set to 100%): 84 % of placebo; Reduction of virus titre compared to placebo-treated animals ([1]; day 7 after infection): about tenfold; Mean cumulative value ± s.d., lesion score ([1]; foscarnet cream, 2 hours later antiinflammatory cream, three times daily day 4-7 after infection, ATI day 2): 4.8 ± 2.0; Mean cumulative value ± s.d., Ear thickness ([1]; foscarnet cream, 2 hours later antiinflammatory cream, three times daily day 4-7 after infection, measured as in Experiment 1): 2.8 ± 0.3; Effect on ear thickness ([1]; in comparison to placebo): small reduction; Effect on lesion score ([1]; in comparison to placebo): small reduction
O=C(O)Cc1ccccc1Nc1c(Cl)cccc1Cl [diclofenac]	–	–	–	–	–	–	–	–	Side-effects of topical NSAID ([1]; topical gel, probably systemic absorption in too high amounts): toxic side-effects
